These results are taken from PMC6114082, “Synthesis of aminophenylhydroxamate and aminobenzylhydroxamate derivatives and in vitro screening for antiparasitic and histone deacetylase inhibitory activity” (International Journal for Parasitology: Drugs and Drug …, 2018).

In this experiment the test system is T. gondii deacetylase activity (total protein extract). Put plainly: Deacetylase activity of total protein extract of T. gondii tachyzoites. The format is biochemical, Toxoplasma gondii. The conditions noted are these: 0.125 μM. The protocol: The HDACi effect against HeLa nuclear extracts and recombinant proteins were measured using a fluorometric HDAC assay kit (Active Motif, Belgium) according to the manufacturer's instructions. […] A negative control containing trichostatin A at a final concentration of 2 μM was analyzed for each independent experiment.
HDAC activity was determined from total protein extracted from T. gondii.

In the case of `COc1cccc(CC(=O)Nc2ccc(C(=O)NO)cc2)c1` [Compound 363, N-hydroxy-4-[2-(3-methoxyphenyl)acetamido]benzamide], the “inhibition of T. gondii deacetylase activity” value is recorded as 44%.
